Measured values as given in article PMC12027730, “Lapatinib-Resistant HER2+ Breast Cancer Cells Are Associated with Dysregulation of MAPK and p70S6K/PDCD4 Pathways and Calcium Management, Influence of Cryptotanshinone” (International Journal of Molecular Sciences, 2025).

Biological target: T1, eIF4AI (Homo sapiens, UniProt P60842)
T1 construct: gene EIF4A1
Assay: synchronous fluorescence quenching, eIF4A […] with Cry […]
Format: binding

T1 sequence (P60842 2-406): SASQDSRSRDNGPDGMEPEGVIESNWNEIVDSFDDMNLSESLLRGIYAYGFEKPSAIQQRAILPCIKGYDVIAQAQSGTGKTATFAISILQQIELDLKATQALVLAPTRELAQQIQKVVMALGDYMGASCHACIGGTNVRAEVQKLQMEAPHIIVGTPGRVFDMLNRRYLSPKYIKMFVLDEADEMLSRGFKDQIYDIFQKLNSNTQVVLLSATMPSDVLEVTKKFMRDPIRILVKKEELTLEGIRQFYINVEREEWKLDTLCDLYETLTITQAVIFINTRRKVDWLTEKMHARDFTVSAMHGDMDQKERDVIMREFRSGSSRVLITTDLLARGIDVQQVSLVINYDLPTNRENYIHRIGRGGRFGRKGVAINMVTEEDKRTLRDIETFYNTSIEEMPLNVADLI

SMILES: C[C@H]1COC2=C1C(=O)C(=O)c1c2ccc2c1CCCC2(C)C [Cry, Cryptotanshinone]
- synchronous fluorescence quenching, eIF4A 12 μM with Cry 0-50 μM: A Cry dose-dependent fluorescence emission decrease in eIF4A associated with the induction of the quenching phenomena was observed
